Measured values: a melting point compilation (Tetko et al.; mined from patent text by program, amines drawn as free bases though some values may be those of a salt)

Work on `CCCc1c(C(O)C(C)C)c2ccc(C#N)cc2n1Cc1ccccc1Cl` (configuration not stated) yielded a melting point of 126 to 127 °C. Compound `CC1(C)C(C=C(C#N)c2ccccc2)C1C(=O)O` (configuration not stated) has a melting point of 186 to 188 °C. With `O=c1[nH]c2cccnc2n1-c1ccc2c(c1)COC2` the melting point was 243 °C. In the case of `CO/C=C(\C(=O)OC)c1ccccc1C`, the melting point is reported as 68 to 70 °C. For `OC(c1ccc(Cl)cc1)(c1ccc(Cl)cc1)C1CO1` (configuration not stated), the melting point was 87 to 88 °C. `O=C(c1ccc2c(c1)OCC(CN1CCOCC1)N2)N1CCOCC1` (configuration not stated) showed a melting point of 125 to 126 °C. `Cc1noc(NS(=O)(=O)c2ccccc2-c2ccc(-c3ncco3)cc2Cn2ccc(-c3ccccc3)n2)c1C` showed a melting point of 164 to 168 °C. `CCCc1nn(C)c2c(=O)[nH]c(Cc3ccc(C(=O)O)cc3)nc12` gave a melting point of 292 to 293 °C. `CC(CCl)OC(=O)Nc1ccc([N+](=O)[O-])cc1Cl` (configuration not stated) gave a melting point of 101 to 103 °C. In the case of `CCn1c2ccccc2n2c(=O)c(C(=O)N3CCOCC3)cnc12`, the melting point is reported as 200 to 202 °C. Compound `COc1cc(-c2ncn(-c3cc(OC)c(OC)c(OC)c3)c2-c2ccc(N(C)C)cc2)cc(OC)c1OC` has a melting point of 169 to 171 °C. In the case of `C#CCN(Cc1cc2c(=O)n(C)c(CN3CCCCC3)nc2cc1Cl)c1ccc(C(=O)OC(C)(C)C)cc1`, the melting point is reported as 162 to 163 °C. `O=C(O)COc1ccc(SCc2ccc(OCc3cc(Cl)ccc3Cl)cc2)c2c1CCCO2` gave a melting point of 98 to 100 °C. For `CN(C)C1(c2ccccc2)CCC(NC2c3ccccc3-c3ccccc32)CC1` (configuration not stated), the melting point was 202 to 205 °C. `CCS(=O)(=O)c1c(Cl)nc(Cl)nc1Cl` gave a melting point of 135 to 136 °C. In the case of `O=C(OCCN1CCOC1=O)c1ccccc1Nc1ccnc2c(C(F)(F)F)cccc12`, the melting point is reported as 158 to 160 °C. For `COC[C@H]1CN(c2ccc(CCCC(=O)C3CCCCC3)cc2)C(=O)O1`, the melting point was 86 °C. Work on `CCCCc1nn(-c2cc(N)ccc2Cl)c(C(=O)OCC)c1Cc1ccc(-c2ccccc2S(=O)(=O)NC(=O)c2ccccc2Cl)cc1` yielded a melting point of over 75 °C. `COc1ccc(C2(C)C(=O)Nc3cc(Cl)cc(Cl)c3C2=O)cc1` (configuration not stated) showed a melting point of 210 to 212 °C. With `O=c1[nH]c2c(c(O)c1[N+](=O)[O-])CCCCC2` the melting point was over 264 °C. `COc1ccnc(C(=O)c2[nH]c3cc(Cl)ccc3c2NC(=O)CC(C)C)c1` gave a melting point of 162 to 163 °C. In the case of `C=CCN1C2CCC1C1CCC2N1C(c1ccc(C(=O)N2CCCCC2)cc1)c1cccc(O)c1` (configuration not stated), the melting point is reported as 133 to 135 °C. For `CCN(C(=O)n1occc1=O)c1ccc(Cl)cc1`, the melting point was 149 °C. For `COc1cc2cc(CO)c(CO)c(-c3ccnc(C4C(=O)CCCC4=O)c3)c2cc1OC`, the melting point was over 220 °C. Compound `COC(=O)NNC(=O)CCCl` has a melting point of 129 °C. Compound `CC(C)(C)OC(=O)Nc1cc(OCc2ccccc2)cc(OCc2ccccc2)c1` has a melting point of 96 to 98 °C. Work on `Cc1nnc(-c2ccc3occ(-c4ccccc4)c3c2)o1` yielded a melting point of 117 to 118 °C. `CC1(C)C(=O)Nc2ccc(-c3ccc(C#N)s3)cc21` gave a melting point of 255 to 256 °C. For `COc1ccc(-c2ccc3c(c2)C=C(C(=O)Nc2ccc(CN(C)C4CCC(=O)CC4)cc2)CCS3(=O)=O)cc1`, the melting point was 214 to 218 °C. `CCCCCCCCCCCCCCCc1ccc2c(c1)C1(O)C(=O)c3ccccc3C1(O)O2` (configuration not stated) showed a melting point of 105 to 110 °C. With `C[C@H](c1ccccc1)N1C(=O)N(Cc2ccccc2)[C@@H]2C(=O)OC[C@@H]21` the melting point was 163 to 164 °C. Compound `CC#CCOc1nsc(-c2ccccc2)n1` has a melting point of 70.3 °C. With `Fc1ccccc1/C=C/c1ccc(N(c2ccccc2)c2ccccc2)cc1` the melting point was 114 to 115 °C. In the case of `CCNc1ccc(-c2cc3ccccc3o2)cc1`, the melting point is reported as 126 to 128 °C. In the case of `O=C1CC(c2cccc(OCc3ccccc3)c2)=Nc2ccc(N3CCOCC3)cc21`, the melting point is reported as 283 to 285 °C. Work on `CCCc1nc2c(N)nc3ccccc3c2n1CC1(O)CCSCC1` yielded a melting point of 243 to 244 °C. With `CC(C)c1nc(-c2ccccc2)nc(-c2ccc(F)cc2)c1C=O` the melting point was 127 to 129 °C. For `CC1(C)Cc2c(N)c(Cl)cc(C(=O)NCCC34CCCN3CCC4)c2O1`, the melting point was 189 to 191 °C. In the case of `CSc1sc(C(=O)N2CCOCC2)c2c1-c1oncc1C(C)(C)C2`, the melting point is reported as 175 to 177 °C. Work on `CS(=O)(=O)c1ccc(Cc2n[nH]c3c2c(=O)n(-c2ccccc2)c2ncccc32)cc1` yielded a melting point of 312 °C. For `Cc1cc(C)cc(SCc2c(C(C)C)nc(C(C)C)c(CO)c2-c2ccc(F)cc2)c1`, the melting point was 109 to 110 °C. Work on `FC(F)(F)c1cc(-n2cc(/C=C/c3nnn[nH]3)c(-c3cccc(Cl)c3)n2)cc(C(F)(F)F)c1` yielded a melting point of 228 to 229 °C. In the case of `COc1cccc(Cc2ccc3nc(N)nc(N)c3c2)c1`, the melting point is reported as 207 to 209 °C. Work on `CC#CCOc1cc(C=O)ccc1OC` yielded a melting point of 81 to 83 °C. Work on `CCN(CC)C(=O)OCC1CN(C(=O)c2cc(OC)c(OC)c(OC)c2)CCN1C(=O)c1cc(OC)c(OC)c(OC)c1` (configuration not stated) yielded a melting point of 95.1 °C. `Cc1nc2c(O)cccc2c(Cl)c1C` gave a melting point of 120 °C. Compound `N#CC(Cl)=C(Cl)S(=O)(=O)c1cc(Cl)ccc1Cl` has a melting point of 84 °C. Work on `CCOC(=O)Cn1nc2ccc(OCCCN3CCC(OC(c4ccccc4)c4ccccc4)CC3)nn2c1=O` yielded a melting point of 124 to 125 °C. `O=C(Oc1ccc(C(=C2CCCCC2)c2ccc(OC(=O)c3ccccc3)c(OC(=O)c3ccccc3)c2)cc1OC(=O)c1ccccc1)c1ccccc1` gave a melting point of 176 °C. With `COc1cc2cc(/C=C/C#N)sc2cc1OC` the melting point was 154 to 158 °C. Work on `Nc1ncccc1-c1nc2ccc(-c3cccnc3)nc2n1-c1ccc(NC(=O)c2ccccc2)cc1` yielded a melting point of 222 to 224 °C. Compound `CS(=O)(=O)c1ccnc(-c2nc(=O)c3ccccc3s2)c1` has a melting point of 300 to 301 °C. Compound `O=c1cc(S)sc2ccoc12` has a melting point of over 245 °C. For `CCCn1nc(-c2sc(C(=O)NC3CC3)nc2-c2ccccc2)ccc1=O`, the melting point was 146 to 147 °C. Work on `CCOC(=O)c1ccccc1-n1c(CCl)nc2ccc(Cl)cc2c1=O` yielded a melting point of 195 to 197 °C. Compound `COc1ccc(-c2cc(C(N)=O)c(=O)n(CC=Cc3ccc(Cl)cc3)n2)cc1` has a melting point of 195 to 196 °C. With `COc1ccc(-n2c(-c3sc(Nc4ccccc4)nc3-c3ccccc3)nc3ccccc3c2=O)cc1` the melting point was 135 to 137 °C. In the case of `Cc1nc(N2CCN(Cc3ccccc3)C2=N)sc1C(=O)NCc1ccc(F)cc1`, the melting point is reported as 142 to 144 °C. Compound `CN(C)C(=O)c1cnn(-c2ccc(Br)cc2)c1C#N` has a melting point of 131 to 133 °C. With `CC(=O)NC[C@H]1CN(c2ccc(N3CCC(O)(CO)CC3)c(F)c2)C(=O)O1` the melting point was 98 to 100 °C. In the case of `O=C(O)CC/C=C\CC[C@@H]1[C@@H](OCc2ccc(-c3ccccc3)cc2)CO[C@@H]1c1cccnc1`, the melting point is reported as 94 to 96 °C. Work on `C/C(=C\C=C(c1ccccc1)c1ccccc1)C(=O)O` yielded a melting point of 184 to 186 °C. Work on `COc1ccc2nn(-c3cc(OCCCO)cc(C(C)(C)C)c3O)nc2c1` yielded a melting point of 128 to 130 °C. In the case of `O=P1(NCCBr)OCCCN1CCBr` (configuration not stated), the melting point is reported as 58 to 59 °C. `C#Cc1cn(C2CC(F)C(COC(c3ccccc3)(c3ccccc3)c3ccccc3)O2)c(=O)[nH]c1=O` (configuration not stated) gave a melting point of 54 °C. Compound `CCCc1nn(C)c2c(=O)[nH]c(-c3cc(C(=O)CN4CCCCC4)ccc3OCC)nc12` has a melting point of 149 to 151 °C. With `Fc1cc(Cl)cnc1Cl` the melting point was 38 to 39 °C. For `Cc1ccc(C#Cc2cnc(-c3ccc(C(F)(F)F)cc3)s2)s1`, the melting point was 107 to 108 °C. `Nc1ccc(CC(NC(=O)CCCCCCCCCCCNC(=O)C(c2ccccc2)c2ccccc2)c2ccccc2)cc1` (configuration not stated) gave a melting point of 107 to 114 °C. Work on `CC(C)(C)OC(=O)CNc1ccccc1F` yielded a melting point of 70 °C. In the case of `CCCCC1(c2ccc(-c3ccccc3)cc2)CC(O)=C(SCCc2ccccc2)C(=O)O1` (configuration not stated), the melting point is reported as 100 to 104 °C. `COc1ccccc1S(=O)(=O)OC(Br)C(=O)c1ccccc1` (configuration not stated) showed a melting point of 90 to 91 °C. Compound `O=Cc1ccc(-c2ccc(C(F)(F)F)cc2)cc1` has a melting point of 70 °C. For `CC(C)n1c(SC(F)(F)C(F)F)nc(-c2ccc(F)cc2)c1-c1ccc(F)cc1`, the melting point was 94 to 103 °C. In the case of `CN(C)C(=S)Oc1ccc(CC#N)cc1`, the melting point is reported as 120 to 124 °C. For `CCOC(=O)N1Cc2ccccc2P1(C)=O` (configuration not stated), the melting point was 102 to 104 °C. In the case of `N#Cc1ccc2oc(CCCCc3cc4cc(C#N)ccc4o3)cc2c1`, the melting point is reported as 187 to 188 °C. `CCOC(=O)COc1ccc(C2=CC(=O)CCC2CC)c(Cl)c1Cl` (configuration not stated) showed a melting point of 110 to 112 °C. For `O=C(Nc1ccccc1)c1ccc2c(c1)S(=O)(=O)NCN2C1CC1`, the melting point was 268 to 270 °C. Compound `CS(=O)(=O)O[C@@H]1C[C@@H](C(N)=O)N(C(=O)OCc2ccc([N+](=O)[O-])cc2)C1` has a melting point of 150 to 151 °C. With `CN=C(C)c1cc(Oc2ccc(C(F)(F)F)cc2Cl)ccc1[N+](=O)[O-]` the melting point was 133 to 137 °C. With `NC(=O)NC1CCCCC1` the melting point was 175 to 176 °C. `CCCNCc1cnc2c(C)c(NC(=O)c3ccc(OC[C@@H]4CCCO4)cc3)ccc2c1` showed a melting point of 121 to 122 °C. `Cc1oc(-c2ccccc2)nc1CNCc1ccc(C[C@@H](C(=O)O)n2cccc2)cc1` gave a melting point of 163 to 165 °C. With `CC(C)(C)N(O)C(=O)C1CCC(C2CCCCC2)CC1` (configuration not stated) the melting point was 119 to 120 °C. `CNc1nc(-c2cccc(NC(=O)c3ccc(OC)c(OC4CCCC4)c3)c2)c2cc(OC)c(OC)cc2n1` gave a melting point of 129 to 131 °C. Compound `O=C(C=CC=C(c1ccc(Cl)cc1)c1ccc(Cl)cc1)Nc1ccc(C(=O)O)cc1` has a melting point of 273 to 276 °C. Work on `O=C(Cc1ccc([N+](=O)[O-])cc1)c1ccc([N+](=O)[O-])cc1` yielded a melting point of 131 to 133 °C. Compound `Cc1cccc(-c2[nH]c(C(C)C)nc2-c2ccc(F)c(-c3ccc(C(=O)NC4CCOCC4)cc3)c2)n1` has a melting point of 130 to 132 °C. `Cc1c(-c2ccnc(Cl)n2)cccc1[N+](=O)[O-]` showed a melting point of 138 to 139 °C. In the case of `O=C(NCC1CCN(CCc2ccccn2)CC1)c1ccc2nonc2c1`, the melting point is reported as 149 to 151 °C. `Clc1ccc(Nc2nc(-c3cccc(Br)n3)nc3ccccc23)cc1` gave a melting point of 242 to 248 °C. With `Clc1ccc(CN2CC=C(C=Cc3ccsc3)CC2)cc1` the melting point was 125 to 127 °C. Work on `O=C1NCCN(c2ccc(OC(F)(F)C(F)F)cc2)C1=O` yielded a melting point of 240 to 242 °C. Work on `COc1c(Nc2ncc(Cl)c(Nc3ccccc3S(=O)(=O)N(C)C)n2)ccc2c1CC(N1CCOCC1)CCC2` (configuration not stated) yielded a melting point of 92 to 104 °C. With `CC(=O)Oc1ccc(C(=O)N2CCN(CC(C)(C)S)CC2)cc1` the melting point was 121 °C. In the case of `O=C(NCc1ccccc1N1CCOCC1)c1ccn2nc(-c3ccccc3)cc2n1`, the melting point is reported as 190 to 192 °C.
